Like-named read-outs stand apart in the source and are kept apart here.
Assays:
Type in all cases: in vivo
Okra Mites = experiment: Trials on controlling Okra Mites post 2nd and 3rd application (Example 2); conditions: doses gm/ha: OSA 625 + Flonicamid 50 / Acetamipirid 50 / Lancer Gold 650, solo OSA 1250, Flonicamid 75, Acetamipirid 50, Lancer gold 650; for Percent control Mean: Mean of B07, C-01, C-10
Procedure: Trials were conducted to test the efficacy of the combination of Flonicamid and Orthosilicic acid on controlling Okra Mites at different dosages post 2nd and 3rd application.

[1] = system: Okra Jassids (Amrasca bigutulla bigutulla); conditions: for Percent control (%) of Okra Jassids, Nymphs + Adults, A01: A01 = 1 day after first spray; for Percent control (%) of Okra Jassids, Nymphs + Adults, A10: A10 (after 1st spray); for Percent control (%) of Okra Jassids, Nymphs + Adults, B03: B03 = 3 days after 2nd spray; for Percent control (%) of Okra Jassids, Nymphs + Adults, B07: B07 (after 2nd spray); for Percent control (%) of Okra Jassids, Nymphs + Adults, B10: B10 (after 2nd spray); for Percent control (%) of Okra Jassids, Nymphs + Adults, B14: B14 (after 2nd spray); for Percent control (%) of Okra Jassids, Nymphs + Adults, C03: C03 = 3 days after third spray; for Percent control (%) of Okra Jassids, Nymphs + Adults, C10: C10 (after third spray)
Text: (§1) In this evaluation, feeding damage & insect population on Okra Leaves before and after sprays is averaged and analyzed for the test of significance. Application method: Three applications (application A, B and C) within an interval of 14 days.

[2] = system: Okra Aphids (Aphis gossypii); conditions: for Percent control (%) of Okra Aphids, Nymphs + Adults, A01: A01 = 1 day after first spray; for Percent control (%) of Okra Aphids, Nymphs + Adults, A10: A10 (after 1st spray); for Percent control (%) of Okra Aphids, Nymphs + Adults, B03: B03 = 3 days after 2nd spray; for Percent control (%) of Okra Aphids, Nymphs + Adults, B07: B07 (after 2nd spray); for Percent control (%) of Okra Aphids, Nymphs + Adults, B10: B10 (after 2nd spray); for Percent control (%) of Okra Aphids, Nymphs + Adults, C03: C03 = 3 days after third spray; for Percent control (%) of Okra Aphids, Nymphs + Adults, C10: C10 (after third spray)
Text: as §1

Okra Aphids = experiment: Trials of Flonicamid and Orthosilicic acid on controlling Okra Aphids (Example 1); conditions: doses gm/ha: OSA + Flonicamid 625 + 50, Flonicamid 75, OSA 1250
Procedure: Trials were conducted to test the efficacy of the combination of Flonicamid and Orthosilicic acid on controlling Okra Aphids at different dosages.

[3] = 25% reduced dose rate, gm a.i./ha: OSA 25, Flonicamid 75, Acephate+Imidacloprid 390, Flonicamid+Fipronil 75+37.5, Imidacloprid 18.3, Acetamiprid 11.2
[4] = doses gm a.i./ha: OSA 25, Flonicamid 100, Acephate+Imidacloprid 520, Flonicamid+Fipronil 100+50, Imidacloprid 24.5, Acetamiprid 15
[5] = reduced insecticide dose, gm a.i./ha: OSA 25, Flonicamid (Ulala) 75, Acephate+Imidacloprid 390, Flonicamid+Fipronil 75+37.5, Imidacloprid 18.3, Acetamiprid 11.2

Structure (SMILES) | Percent control B07 (Okra Mites) | Percent control C-01 (Okra Mites) | Percent control C-10 (Okra Mites) | Percent control Mean (Okra Mites) | Percent control (%) of Okra Jassids, Nymphs + Adults, A01 [1, 3] | Percent control (%) of Okra Jassids, Nymphs + Adults, A01 [1, 4] | Percent control (%) of Okra Jassids, Nymphs + Adults, A10 [1, 3] | Percent control (%) of Okra Jassids, Nymphs + Adults, A10 [1, 4] | Percent control (%) of Okra Jassids, Nymphs + Adults, B03 [1, 3] | Percent control (%) of Okra Jassids, Nymphs + Adults, B03 [1, 4] | Percent control (%) of Okra Jassids, Nymphs + Adults, B07 [1, 3] | Percent control (%) of Okra Jassids, Nymphs + Adults, B07 [1, 4] | Percent control (%) of Okra Jassids, Nymphs + Adults, B10 [1, 3] | Percent control (%) of Okra Jassids, Nymphs + Adults, B10 [1, 4] | Percent control (%) of Okra Jassids, Nymphs + Adults, B14 [1, 3] | Percent control (%) of Okra Jassids, Nymphs + Adults, B14 [1, 4] | Percent control (%) of Okra Jassids, Nymphs + Adults, C03 [1, 3] | Percent control (%) of Okra Jassids, Nymphs + Adults, C03 [1, 4] | Percent control (%) of Okra Jassids, Nymphs + Adults, C10 [1, 3] | Percent control (%) of Okra Jassids, Nymphs + Adults, C10 [1, 4] | also measured
C/C(=N\C#N)N(C)Cc1ccc(Cl)nc1 [Acetamipirid, Acetamiprid] | 24.6% | 26.9% | 22.2% | 24.56% | 59.3% | 66.4% | 64.4% | 72.4% | 68.8% | 73.9% | 70.9% | 76.7% | 71.3% | 76.9% | 66.6% | 70.9% | 69.5% | 74.8% | 70.7% | 79.3% | Percent control (%) of Okra Aphids, Nymphs + Adults, A01 [2, 4]: 71.1%; Percent control (%) of Okra Aphids, Nymphs + Adults, A01 [2, 5]: 64.8%; Percent control (%) of Okra Aphids, Nymphs + Adults, A10 [2, 4]: 86.1%; Percent control (%) of Okra Aphids, Nymphs + Adults, A14 ([2]; A14 = 14 days after 1st spray, reduced insecticide dose, gm a.i./ha: OSA 25, Flonicamid (Ulala) 75, Acephate+Imidacloprid 390, Flonicamid+Fipronil 75+37.5, Imidacloprid 18.3, Acetamiprid 11.2): 74.7%; Percent control (%) of Okra Aphids, Nymphs + Adults, B03 [2, 4]: 86.8%; Percent control (%) of Okra Aphids, Nymphs + Adults, B03 [2, 5]: 79.7%; Percent control (%) of Okra Aphids, Nymphs + Adults, B07 [2, 4]: 86.7%; Percent control (%) of Okra Aphids, Nymphs + Adults, B07 [2, 5]: 81.8%; Percent control (%) of Okra Aphids, Nymphs + Adults, B10 [2, 4]: 85%; Percent control (%) of Okra Aphids, Nymphs + Adults, B10 [2, 5]: 82.5%; Percent control (%) of Okra Aphids, Nymphs + Adults, C03 [2, 4]: 87.4%; Percent control (%) of Okra Aphids, Nymphs + Adults, C03 [2, 5]: 86.9%; Percent control (%) of Okra Aphids, Nymphs + Adults, C10 [2, 4]: 87.6%; Percent control (%) of Okra Aphids, Nymphs + Adults, C10 [2, 5]: 86.5%
N#CCNC(=O)c1cnccc1C(F)(F)F [Flonicamid, N-cyanomethyl-4-trifluoromethylnicotinamide] | 31.8% | 39.5% | 34.0% | 35.1% | 71.2% | 74.8% | 85.8% | 89.3% | 82% | 90.7% | 89.3% | 93.3% | 91.5% | 94.2% | 87.4% | 89.3% | 90.2% | 93.3% | 92.5% | 94.4% | Percent control (%) of Okra Aphids, Nymphs + Adults, A01 [2, 4]: 78.2%; Percent control (%) of Okra Aphids, Nymphs + Adults, A10 [2, 4]: 91.9%; Percent control (%) of Okra Aphids, Nymphs + Adults, B03 [2, 4]: 95.1%; Percent control (%) of Okra Aphids, Nymphs + Adults, B07 [2, 4]: 95.5%; Percent control (%) of Okra Aphids, Nymphs + Adults, B10 [2, 4]: 93%; Percent control (%) of Okra Aphids, Nymphs + Adults, C03 [2, 4]: 94.7%; Percent control (%) of Okra Aphids, Nymphs + Adults, C10 [2, 4]: 94.9%; Percent control B01 (Okra Aphids; B01): 88.8%; Percent control C-01 (Okra Aphids; C-01): 91.8%; Percent control C-10 (Okra Aphids; C-10): 96%; Percent control Mean (Okra Aphids; Mean of B01, C-01, C-10): 92.2%
